Test results as given in patent publication US12534469B2 (CHILDREN'S HOSPITAL MEDICAL CENTER, priority 2020, dated 2026).
“Also recorded” adds a separate entry of the source.

What was measured:
FLT3 D835H = target: T1, FLT3 D835H (Homo sapiens, UniProt P36888, D835H); test: DiscoverX KINOMEscan competition binding assay, FLT3 D835H
T1 construct: purchased DiscoverX (KINOMEscan); host or cells: E. coli (T7 phage) or HEK-293
T1 sequence (P36888 27-993 D835H): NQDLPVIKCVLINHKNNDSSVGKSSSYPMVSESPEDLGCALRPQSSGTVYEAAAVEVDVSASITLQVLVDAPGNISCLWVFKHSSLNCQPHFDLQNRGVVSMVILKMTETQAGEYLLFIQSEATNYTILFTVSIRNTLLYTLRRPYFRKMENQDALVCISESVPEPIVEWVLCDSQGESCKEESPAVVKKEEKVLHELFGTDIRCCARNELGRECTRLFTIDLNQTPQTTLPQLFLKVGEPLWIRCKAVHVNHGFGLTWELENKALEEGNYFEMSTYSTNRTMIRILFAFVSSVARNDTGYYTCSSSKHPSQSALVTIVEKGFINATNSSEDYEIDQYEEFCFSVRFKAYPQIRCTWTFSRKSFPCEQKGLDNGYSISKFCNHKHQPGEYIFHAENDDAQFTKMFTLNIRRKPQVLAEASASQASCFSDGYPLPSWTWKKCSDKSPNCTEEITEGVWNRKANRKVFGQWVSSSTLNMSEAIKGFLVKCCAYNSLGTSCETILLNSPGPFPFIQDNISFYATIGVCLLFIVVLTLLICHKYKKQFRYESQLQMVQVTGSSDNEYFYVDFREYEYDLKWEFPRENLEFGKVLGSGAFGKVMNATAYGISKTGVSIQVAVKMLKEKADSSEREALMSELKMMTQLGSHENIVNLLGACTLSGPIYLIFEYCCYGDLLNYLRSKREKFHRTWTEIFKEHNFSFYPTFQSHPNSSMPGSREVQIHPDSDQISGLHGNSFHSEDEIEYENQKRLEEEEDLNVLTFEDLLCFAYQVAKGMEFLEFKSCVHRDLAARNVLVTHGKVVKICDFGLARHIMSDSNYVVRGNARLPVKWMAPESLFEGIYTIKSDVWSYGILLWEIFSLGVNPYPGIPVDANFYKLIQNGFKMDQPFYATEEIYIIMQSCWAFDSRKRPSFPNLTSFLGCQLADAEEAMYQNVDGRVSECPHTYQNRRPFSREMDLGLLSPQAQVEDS
Source text: Kinase binding data were obtained for various exemplary compounds prepared according to Examples 1-25 using the DiscoverX KINOMEscan® active site-directed competition binding site-directed assay protocol described below. […] As a result, the data report thermodynamic interaction affinities (Kd values), rather than IC50 values that are dependent on ATP concentrations. The assay uses a DNA-tagged version of the protein kinase, and an immobilized ligand bound to a solid support. Compounds that directly or indirectly prevent kinase binding to the immobilized ligand reduce the amount of kinase captured on the solid support, which is detected using an ultra-sensitive qPCR method. Affinity constants reported from the assay have been reported to be independent of the immobilized ligand used that is coupled to the solid support (See supplemental information in Fabian, M. A. et. al., (2005) Nat. Biotechnol. 23, 329-336; Wodicka, L. M. et. al., (2010) Chem. Biol. 17, 1241-1249.)
Kinase-tagged T7 phage strains were prepared in an E. coli host derived from the BL21 strain. E. coli were grown to log-phase and infected with T7 phage and incubated with shaking at 32° C. until lysis. The lysates were centrifuged and filtered to remove cell debris. The remaining kinases were produced in HEK-293 cells and subsequently tagged with DNA for qPCR detection. […] The liganded beads were blocked with excess biotin and washed with blocking buffer (SeaBlock (Pierce), 1% BSA, 0.05% Tween 20, 1 mM DTT) to remove unbound ligand and to reduce non-specific binding. […] Test compounds were prepared as 111× stocks in 100% DMSO. Kds were determined using an 11-point 3-fold compound dilution series with three DMSO control points. […] The compounds were then diluted directly into the assays such that the final concentration of DMSO was 0.9%. All reactions were performed in polypropylene 384-well plates. Each was a final volume of 0.02 mL. […] The kinase concentration in the eluates was measured by qPCR.
Binding constants (Kds) were calculated with a standard dose-response curve using the Hill equation. […]

MOLM14 (D835Y) cells = test: Combination drug screening, 10 x 10 matrix, cell viability (Cell Titer Glo); type: cell-based; details: for Interaction with Venetoclax / Sum Excess HSA: combination with Venetoclax, 10 x 10 dataset; for Sum Excess HSA: 48 hours
Experimental: Briefly, 10 nL of compounds were acoustically dispensed into 1536-well white polystyrene tissue culture-treated plates with an Echo 550 acoustic liquid handler (Labcyte). MOLM14 (D835Y) cells were then added to compound-containing plates at a density of 500-cells/well in 5 μL of medium. A 10-point custom concentration range was used for all listed drugs. Plates were incubated for 48 hours at standard incubator conditions covered by a stainless steel gasketed lid to prevent evaporation. 48 h post compound addition, 3 μL of Cell Titer Glo (Promega) were added to each well and plates were incubated at room temperature for 15 minutes with the stainless-steel lid in place. Luminescence readings were taken using a Viewlux imager (PerkinElmer) with a 2 second exposure time per plate.
However, different methodologies may yield different numerical scores, and different definitions of what constitutes a deviation from mere additivity vs true drug synergy.
However, the utility in certain drug combinations vs others should not be distinguished based on cutoffs between HSA scores, because the score itself is only a relative indicator that is completely dependent on experimental design and is not an absolute number. Furthermore, the concept of what constitutes clinically meaningful drug synergy is something that is still being debated, not only between pharmacologists and physicians, but amongst pharmacologists themselves.

| Compound | Kd (FLT3 D835H) [pM] | Interaction with Venetoclax (MOLM14 (D835Y) cells) | Sum Excess HSA (MOLM14 (D835Y) cells) | concentration at which synergy (Delta Bliss score) is highest (MOLM14 (D835Y) cells; combined with 15.6 nM Venetoclax, 10×10 array) [nM] | concentration of compound required to fully potentiate a 7.8 nM concentration of Venetoclax to <5% of the maximum response (MOLM14 (D835Y) cells; 7.8 nM Venetoclax, 10×10 combination) [nM] |
| --- | --- | --- | --- | --- | --- |
| COc1cc2ncc(-c3nc(N[C@H]4CNCC[C@@H]4F)c(F)cc3F)n2nc1C1CC1 [Compound 108, 6-(6-cyclopropyl-7-methoxyimidazo[1,2-b]pyridazin-3-yl)-3,5-difluoro-N-((3S,4S)-4-fluoropiperidin-3-yl)pyridin-2-amine] | – | profound synergism | −480.4 | 0.8 to 1.6 | – |
| COc1cc2ncc(-c3nc(N[C@@H]4CCCNC4)c(F)cc3F)n2nc1C1CC1 [Compound 106, (R)-6-(6-cyclopropyl-7-methoxyimidazo[1,2-b]pyridazin-3-yl)-3,5-difluoro-N-(piperidin-3-yl)pyridin-2-amine] | – | profound synergism | −334 | – | 3.1 |
| COc1cc2ncc(-c3cccc(N[C@H]4CNC[C@@H]4C(F)(F)F)n3)n2nc1C1CC1 [Compound 99, 6-(6-cyclopropyl-7-methoxyimidazo[1,2-b]pyridazin-3-yl)-N-((3R,4S)-4-(trifluoromethyl)pyrrolidin-3-yl)pyridin-2-amine] | – | profound synergism; also recorded: Synergistic | −789.4 | – | – |

Further lines, with some results ahead:

| Kd (FLT3 D835H) [pM] | Compound | Interaction with Venetoclax (MOLM14 (D835Y) cells) | Sum Excess HSA (MOLM14 (D835Y) cells) | concentration at which synergy (Delta Bliss score) is highest (MOLM14 (D835Y) cells; combined with 15.6 nM Venetoclax, 10×10 array) [nM] | concentration of compound required to fully potentiate a 7.8 nM concentration of Venetoclax to <5% of the maximum response (MOLM14 (D835Y) cells; 7.8 nM Venetoclax, 10×10 combination) [nM] |
| --- | --- | --- | --- | --- | --- |
| 210 | COc1cc2ncc(-c3cccc(N[C@H]4CNCC[C@@H]4F)n3)n2nc1C1CC1 [Compound 102, 6-(6-cyclopropyl-7-methoxyimidazo[1,2-b]pyridazin-3-yl)-N-((3S,4S)-4-fluoropiperidin-3-yl)pyridin-2-amine] | profound synergism | −188.8 | – | – |
| 180 | COc1cc2ncc(-c3cccc(N[C@@H]4CCNC4)n3)n2nc1C1CC1 [Compound 97, (R)-6-(6-cyclopropyl-7-methoxyimidazo[1,2-b]pyridazin-3-yl)-N-(pyrrolidin-3-yl)pyridin-2-amine] | – | – | – | – |
| 230 | COc1cc2ncc(-c3cccc(N[C@H]4CNC[C@@H]4F)n3)n2nc1C1CC1 [Compound 96, 6-(6-cyclopropyl-7-methoxyimidazo[1,2-b]pyridazin-3-yl)-N-((3S,4S)-4-fluoropyrrolidin-3-yl)pyridin-2-amine] | profound synergism | −543.2 | – | – |
